Measured values from the supplement of paper PMC11451515.

How the values were obtained:
Settings in all cases: 48 h
SEM cells [1] = experiment: cell viability relative to DMSO control; higher = less cytotoxic
How it was run: (§1)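 Cells were incubated for 48 h at 37°C before CellTiter-Glo One luminescence was read. The cells were NOMO1 or SEM (500 cells/well) or P12-Ichikawa (1000 cells/well) leukemia cells, adapted for at least four passages in each medium and seeded in 1536-well plates (5 μl). Dosing used library compounds in DMSO applied by pin over 11 threefold points, 47 μM to 0.79 nM. Viability is the per-plate percentage of DMSO wells, with cell-free wells as background.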

NOMO1 [2] = experiment: as above
How it was run: as §1

P12-Ichikawa [3] = experiment: as above
How it was run: as §1

SEM cells [4] = experiment: AUC of viability dose-response curve (% viability x log10 dose units); higher = less sensitive
How it was run: (§2)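 Leukemia cells adapted to each medium (500 or 1000 cells/well, 1536-well plates) were exposed to library compounds in DMSO for 48 h at 37°C at 11 threefold doses, 47 μM to 0.79 nM. Luminescence by CellTiter-Glo One was normalised per plate to DMSO and cell-free wells, then fitted with a four-parameter log-logistic curve on log10 dose. Curves above full viability were scaled and quality-control failures removed before area under the curve was integrated by trapezoidal rule.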

NOMO1 [5] = experiment: as above
How it was run: as §2

P12-Ichikawa [6] = experiment: as above
How it was run: as §2

NC[C@H]1CC[C@H](C(=O)O)CC1
Settings	cell viability [%]
NOMO1 [2], RPMI 5 mM glucose + 10% FBS, 0.000781 µM	112
NOMO1 [2], RPMI 5 mM glucose + 10% FBS, 0.00234 µM	133
NOMO1 [2], RPMI 5 mM glucose + 10% FBS, 0.00702 µM	105
NOMO1 [2], RPMI 5 mM glucose + 10% FBS, 0.0211 µM	109
NOMO1 [2], RPMI 5 mM glucose + 10% FBS, 0.0632 µM	119
NOMO1 [2], RPMI 5 mM glucose + 10% FBS, 0.19 µM	128
NOMO1 [2], RPMI 5 mM glucose + 10% FBS, 0.569 µM	110
NOMO1 [2], RPMI 5 mM glucose + 10% FBS, 1.71 µM	110
NOMO1 [2], RPMI 5 mM glucose + 10% FBS, 5.12 µM	116
NOMO1 [2], RPMI 5 mM glucose + 10% FBS, 15.4 µM	121
NOMO1 [2], RPMI 5 mM glucose + 10% FBS, 46.1 µM	120
P12-Ichikawa [3], RPMI 5 mM glucose + 10% FBS, 0.000781 µM	15
P12-Ichikawa [3], RPMI 5 mM glucose + 10% FBS, 0.00234 µM	141
P12-Ichikawa [3], RPMI 5 mM glucose + 10% FBS, 0.00702 µM	125
P12-Ichikawa [3], RPMI 5 mM glucose + 10% FBS, 0.0211 µM	134
P12-Ichikawa [3], RPMI 5 mM glucose + 10% FBS, 0.0632 µM	139
P12-Ichikawa [3], RPMI 5 mM glucose + 10% FBS, 0.19 µM	123
P12-Ichikawa [3], RPMI 5 mM glucose + 10% FBS, 0.569 µM	136
P12-Ichikawa [3], RPMI 5 mM glucose + 10% FBS, 1.71 µM	129
P12-Ichikawa [3], RPMI 5 mM glucose + 10% FBS, 5.12 µM	132
P12-Ichikawa [3], RPMI 5 mM glucose + 10% FBS, 15.4 µM	128
P12-Ichikawa [3], RPMI 5 mM glucose + 10% FBS, 46.1 µM	121
SEM cells [1], HPLM + 10% dialyzed FBS, 0.000781 µM	58.2
SEM cells [1], HPLM + 10% dialyzed FBS, 0.00234 µM	128
SEM cells [1], HPLM + 10% dialyzed FBS, 0.00702 µM	113
SEM cells [1], HPLM + 10% dialyzed FBS, 0.0211 µM	111
SEM cells [1], HPLM + 10% dialyzed FBS, 0.0632 µM	119
SEM cells [1], HPLM + 10% dialyzed FBS, 0.19 µM	131
SEM cells [1], HPLM + 10% dialyzed FBS, 0.569 µM	123
SEM cells [1], HPLM + 10% dialyzed FBS, 1.71 µM	124
SEM cells [1], HPLM + 10% dialyzed FBS, 5.12 µM	113
SEM cells [1], HPLM + 10% dialyzed FBS, 15.4 µM	111
SEM cells [1], HPLM + 10% dialyzed FBS, 46.1 µM	104
SEM cells [1], RPMI 5 mM glucose + 10% dialyzed FBS, 0.000781 µM	56.4
SEM cells [1], RPMI 5 mM glucose + 10% dialyzed FBS, 0.00234 µM	110
SEM cells [1], RPMI 5 mM glucose + 10% dialyzed FBS, 0.00702 µM	106
SEM cells [1], RPMI 5 mM glucose + 10% dialyzed FBS, 0.0211 µM	126
SEM cells [1], RPMI 5 mM glucose + 10% dialyzed FBS, 0.0632 µM	106
SEM cells [1], RPMI 5 mM glucose + 10% dialyzed FBS, 0.19 µM	104
SEM cells [1], RPMI 5 mM glucose + 10% dialyzed FBS, 0.569 µM	99.9
SEM cells [1], RPMI 5 mM glucose + 10% dialyzed FBS, 1.71 µM	116
SEM cells [1], RPMI 5 mM glucose + 10% dialyzed FBS, 5.12 µM	99.7
SEM cells [1], RPMI 5 mM glucose + 10% dialyzed FBS, 15.4 µM	102
SEM cells [1], RPMI 5 mM glucose + 10% dialyzed FBS, 46.1 µM	92.7

AUC of viability dose-response curve
Settings	HPLM + 10% dialyzed FBS	RPMI 5 mM glucose + 10% FBS	RPMI 5 mM glucose + 10% dialyzed FBS
NOMO1 [5]	455	475	448
SEM cells [4]	443	456	456

O=c1c(-c2ccc(O)cc2)coc2cc(O[C@@H]3O[C@H](CO)[C@@H](O)[C@H](O)[C@H]3O)ccc12
cell viability [%], SEM cells [1]
Settings	HPLM + 10% dialyzed FBS	RPMI 5 mM glucose + 10% dialyzed FBS
0.000781 µM	114	124
0.00234 µM	115	124
0.00702 µM	115	128
0.0211 µM	122	119
0.0632 µM	114	135
0.19 µM	120	137
0.569 µM	123	126
1.71 µM	110	111
5.12 µM	121	118
15.4 µM	91.1	100
46.1 µM	79.1	70.1

AUC of viability dose-response curve
Settings	NOMO1 [5]	P12-Ichikawa [6]	SEM cells [4]
HPLM + 10% dialyzed FBS	456	473	459
RPMI 5 mM glucose + 10% FBS	468	469	450
RPMI 5 mM glucose + 10% dialyzed FBS	467	470	449

CO[C@H]1/C=C/O[C@@]2(C)Oc3c(C)c(O)c4c(O)c(c5c(nc6cc(C)ccn65)c4c3C2=O)NC(=O)/C(C)=C\C=C\[C@H](C)[C@H](O)[C@@H](C)[C@@H](O)[C@@H](C)[C@H](OC(C)=O)[C@@H]1C
cell viability [%]
Settings	NOMO1 [2]	P12-Ichikawa [3]	SEM cells [1]
HPLM + 10% dialyzed FBS, 0.000781 µM	104	108	100
HPLM + 10% dialyzed FBS, 0.00234 µM	119	98.3	97.7
HPLM + 10% dialyzed FBS, 0.00702 µM	112	107	100
HPLM + 10% dialyzed FBS, 0.0211 µM	96.1	106	107
HPLM + 10% dialyzed FBS, 0.0632 µM	116	107	92.5
HPLM + 10% dialyzed FBS, 0.19 µM	110	106	112
HPLM + 10% dialyzed FBS, 0.569 µM	96	104	113
HPLM + 10% dialyzed FBS, 1.71 µM	93.8	102	104
HPLM + 10% dialyzed FBS, 5.12 µM	35.5	50.2	47.2
HPLM + 10% dialyzed FBS, 15.4 µM	91.7	89.4	70
HPLM + 10% dialyzed FBS, 46.1 µM	11.1	9.34	1.92
RPMI 5 mM glucose + 10% FBS, 0.000781 µM	107	103	106
RPMI 5 mM glucose + 10% FBS, 0.00234 µM	99.1	103	120
RPMI 5 mM glucose + 10% FBS, 0.00702 µM	97.7	113	109
RPMI 5 mM glucose + 10% FBS, 0.0211 µM	110	102	125
RPMI 5 mM glucose + 10% FBS, 0.0632 µM	82.7	114	94.9
RPMI 5 mM glucose + 10% FBS, 0.19 µM	105	101	102
RPMI 5 mM glucose + 10% FBS, 0.569 µM	87.6	94.1	115
RPMI 5 mM glucose + 10% FBS, 1.71 µM	98.7	103	111
RPMI 5 mM glucose + 10% FBS, 5.12 µM	43.8	46.5	40.5
RPMI 5 mM glucose + 10% FBS, 15.4 µM	91.4	72.8	63.1
RPMI 5 mM glucose + 10% FBS, 46.1 µM	44.9	35.1	4.47
RPMI 5 mM glucose + 10% dialyzed FBS, 0.000781 µM	99.4	105	104
RPMI 5 mM glucose + 10% dialyzed FBS, 0.00234 µM	97.8	100	109
RPMI 5 mM glucose + 10% dialyzed FBS, 0.00702 µM	95.3	101	98.6
RPMI 5 mM glucose + 10% dialyzed FBS, 0.0211 µM	108	99.9	109
RPMI 5 mM glucose + 10% dialyzed FBS, 0.0632 µM	86.3	101	90.2
RPMI 5 mM glucose + 10% dialyzed FBS, 0.19 µM	108	97.7	96.8
RPMI 5 mM glucose + 10% dialyzed FBS, 0.569 µM	99.9	102	97.1
RPMI 5 mM glucose + 10% dialyzed FBS, 1.71 µM	99.7	92.9	82.1
RPMI 5 mM glucose + 10% dialyzed FBS, 5.12 µM	28.9	41.8	32
RPMI 5 mM glucose + 10% dialyzed FBS, 15.4 µM	82.3	77.3	50.8
RPMI 5 mM glucose + 10% dialyzed FBS, 46.1 µM	18.6	33.7	1.61

SEM cells [4]
Settings	AUC of viability dose-response curve
HPLM + 10% dialyzed FBS	410
RPMI 5 mM glucose + 10% FBS	394
RPMI 5 mM glucose + 10% dialyzed FBS	375

CC(C)N(CCNC(=O)CN1CCCC1=O)C(C)C
AUC of viability dose-response curve
Settings	NOMO1 [5]	P12-Ichikawa [6]	SEM cells [4]
HPLM + 10% dialyzed FBS	430	460	477
RPMI 5 mM glucose + 10% FBS	456	453	460
RPMI 5 mM glucose + 10% dialyzed FBS	461	435	476

CCCNC(=O)[C@H]1O[C@@H]1C(=O)N[C@H](C(=O)N1CCC[C@H]1C(=O)OC)C(C)CC (stereo not given in full)
AUC of viability dose-response curve
Settings	NOMO1 [5]	P12-Ichikawa [6]	SEM cells [4]
HPLM + 10% dialyzed FBS	444	446	439
RPMI 5 mM glucose + 10% FBS	421	416	420
RPMI 5 mM glucose + 10% dialyzed FBS	449	424	433

NC1(C(=O)N[C@@H](CCO)c2ccc(Cl)cc2)CCN(c2ncnc3[nH]ccc23)CC1
AUC of viability dose-response curve
Settings	NOMO1 [5]	P12-Ichikawa [6]	SEM cells [4]
HPLM + 10% dialyzed FBS	409	391	375
RPMI 5 mM glucose + 10% FBS	413	362	378
RPMI 5 mM glucose + 10% dialyzed FBS	423	378	356

CCCC1=NC(=C2[N]1NC(=N\C2=O)/C3=CC(=CC=C3OCC)[S+]([O-])(=O)N4CCN(CC)CC4)C
SEM cells [1], RPMI 5 mM glucose + 10% dialyzed FBS
Settings	cell viability [%]
0.000781 µM	125
0.00234 µM	115
0.00702 µM	128
0.0211 µM	131
0.0632 µM	143
0.19 µM	134
0.569 µM	140
1.71 µM	145
5.12 µM	106
15.4 µM	10.4
46.1 µM	6.51

AUC of viability dose-response curve
Settings	NOMO1 [5]	P12-Ichikawa [6]	SEM cells [4]
HPLM + 10% dialyzed FBS	402	421	417
RPMI 5 mM glucose + 10% FBS	409	402	407
RPMI 5 mM glucose + 10% dialyzed FBS	406	399	401
